Data set [1] concerns the target T1, hCA XII (Homo sapiens, UniProt O43570).
T1 construct: made in house
Briefly: biochemical. Here is the method: (§1) For this reason, we herein report a 6 h incubation time instead.
(§2) An Applied Photophysics stopped-flow instrument was used for assaying the CA catalyzed CO2 hydration activity. […] The uncatalyzed rates were determined in the same manner and subtracted from the total observed rates. Stock solutions of inhibitor (0.1 mM) were prepared in distilled–deionized water and dilutions up to 0.01 nM were done thereafter with the assay buffer. Inhibitor and enzyme solutions were preincubated together for 6h at room temperature prior to assay, in order to allow for the formation of the E-I complex. The inhibition constants were obtained by non-linear least-squares methods using PRISM 3 and the Cheng–Prusoff equation and represent the mean from at least three different determinations. […] All CA isoforms were recombinant ones obtained in-house.

Data set [2] concerns the target T2, hCA IX (Homo sapiens, UniProt Q16790).
T2 construct: made in house
The experiment in a line: stopped-flow CO2 hydrase assay, hCA IX inhibition. As to conditions: 6 h incubation of enzyme and inhibitor; mean from 3 different assays, errors 5-10%; read-out: KI (nM) CA IX. Format: biochemical. Here is the method:
as §1, §2

Data set [3] deals with T3, hCA I (Homo sapiens, UniProt P00915).
T3 construct: made in house
The experiment in a line: stopped-flow CO2 hydrase assay, hCA I inhibition. Format: biochemical. The conditions noted are these: 6 h incubation of enzyme and inhibitor; mean from 3 different assays, errors 5-10%; read-out: KI (nM) CA I. The method, then: as §1, §2

Data set [4] deals with T4, hCA II (Homo sapiens, UniProt P00918).
T4 construct: made in house
The experiment in a line: stopped-flow CO2 hydrase assay, hCA II inhibition. It counts as biochemical. As to conditions: 6 h incubation of enzyme and inhibitor; mean from 3 different assays, errors 5-10%; read-out: KI (nM) CA II. Here is the method: as §1, §2

[5] abbreviates: 6 h incubation of enzyme and inhibitor, mean from 3 different assays, errors 5-10%, read-out: KI (nM) CA XII.

Where “and” joins values, the source holds several entries; their conditions need not be identical. Identical values can stand only once. Like-named read-outs stand apart in the source and are kept apart here.

T1 sequence (O43570 25-354): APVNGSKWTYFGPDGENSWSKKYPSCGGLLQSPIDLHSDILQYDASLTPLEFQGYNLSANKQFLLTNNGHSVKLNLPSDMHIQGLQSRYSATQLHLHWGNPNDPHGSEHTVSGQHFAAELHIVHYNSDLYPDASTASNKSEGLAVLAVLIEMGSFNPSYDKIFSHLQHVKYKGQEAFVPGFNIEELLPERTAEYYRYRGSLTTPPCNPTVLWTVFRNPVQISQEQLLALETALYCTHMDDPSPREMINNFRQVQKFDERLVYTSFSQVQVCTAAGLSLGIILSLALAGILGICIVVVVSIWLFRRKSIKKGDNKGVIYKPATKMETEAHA
T3 sequence (P00915 whole entry): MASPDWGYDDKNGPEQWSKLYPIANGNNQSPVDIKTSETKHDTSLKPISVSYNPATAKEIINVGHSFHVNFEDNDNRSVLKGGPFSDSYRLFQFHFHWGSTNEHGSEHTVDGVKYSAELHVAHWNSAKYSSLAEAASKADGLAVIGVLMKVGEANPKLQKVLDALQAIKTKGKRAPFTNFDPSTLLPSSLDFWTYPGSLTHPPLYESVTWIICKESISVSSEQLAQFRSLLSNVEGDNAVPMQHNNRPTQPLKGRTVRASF

In the case of `O=[N+]([O-])c1cccc(COc2ccc3c(c2)OS(=O)(=O)c2ccccc2-3)c1` [Compound 31, 3-((3-nitrobenzyl)oxy)dibenzo[c,e][1,2]oxathiine 6,6-dioxide], the melting point fell in the range of 248 to 251 °C. Also, in data set [1] (setting [5]), the inhibition constant (Ki) amounted to 1370 nM. For the same compound, the inhibition constant (Ki) in data set [2] is 898 nM. Also, in data set [3], the inhibition constant (Ki) was > 100000 nM. The Ki in data set [4] is > 100000 nM.

Compound `CC1=CS(=O)(=O)Oc2cc(OCc3ccc(F)cc3)ccc21` [Compound 19, 7-((4-fluorobenzyl)oxy)-4-methylbenzo[e][1,2]oxathiine 2,2-dioxide] showed a melting point of 195 to 198 °C. Also, the inhibition constant Ki in data set [1] (setting [5]) was determined as 41.7 nM. For the same compound, the Ki in data set [2] was 14.3 nM. The inhibition constant (Ki) in data set [3] was > 100000 nM. In data set [4], the Ki is > 100000 nM.

`COc1ccc(NC(=O)C2=Cc3ccccc3OS2(=O)=O)cc1` [Compound 41, N-(4-methoxyphenyl)benzo[e][1,2]oxathiine-3-carboxamide 2,2-dioxide] registered a melting point of 231 to 233 °C. The compound also registered a Ki in data set [1] of 8550 nM. The inhibition constant Ki in data set [2] was determined as 8230 nM. The inhibition constant Ki in data set [3] is > 100000 nM. Besides, the inhibition constant Ki in data set [4] was > 100000 nM.

Compound `O=S1(=O)C=Cc2ccc(OCc3ccccc3)cc2O1` [Compound 13, 7-(Benzyloxy)benzo[e][1,2]oxathiine 2,2-dioxide] yielded a melting point of 165 to 167 °C. In addition, the Ki in data set [1] (setting [5]) is 28.3 nM. Further, the Ki in data set [2] was 55.6 nM. In data set [3], the Ki is > 100000 nM.

The compound `CC1=CS(=O)(=O)Oc2cc(OCc3cccc(F)c3)ccc21` [Compound 20, 7-((3-fluorobenzyl)oxy)-4-methylbenzo[e][1,2]oxathiine 2,2-dioxide] gave a melting point of 214 to 215 °C. Further, in data set [1] (setting [5]), the Ki was 25.7 nM. For the same compound, in data set [2], the inhibition constant (Ki) worked out at 33.2 nM. Further, the inhibition constant Ki in data set [3] was > 100000 nM. Moreover, in data set [4], the inhibition constant Ki is > 100000 nM.

Turning to `O=S1(=O)Oc2cc(OCc3ccccc3)ccc2-c2ccccc21` [Compound 27, 3-(benzyloxy)dibenzo[c,e][1,2]oxathiine 6,6-dioxide], the melting point fell in the range of 232 to 235 °C. For the same compound, the Ki in data set [1] (setting [5]) is 911 nM. For the same compound, the Ki in data set [2] is 681 nM. The Ki in data set [3] was > 100000 nM. Also, the Ki in data set [4] is > 100000 nM.

`COc1ccc2c(c1)OS(=O)(=O)C=C2C` [Compound 10, 7-Methoxy-4-methylbenzo[e][1,2]oxathiine 2,2-dioxide] displayed a melting point of 151 to 153 °C. The Ki in data set [1] (setting [5]) was found to be 73.9 nM. Besides, the Ki in data set [2] was 97.2 nM. Besides, the inhibition constant Ki in data set [3] was > 100000 nM. Besides, the Ki in data set [4] is 8810 nM.

On to `CC1=CS(=O)(=O)Oc2cc(OCc3ccccc3)ccc21` [Compound 18, 7-(benzyloxy)-4-methylbenzo[e][1,2]oxathiine 2,2-dioxide], for which the melting point lay in the range of 174 to 175 °C. The inhibition constant Ki in data set [1] (setting [5]) worked out at 8.6 nM. The Ki in data set [2] turned out to be 49.8 nM. Besides, the inhibition constant Ki in data set [3] was > 100000 nM. In data set [4], the Ki was > 100000 nM.

`CC1=CS(=O)(=O)Oc2cc(O)ccc21` [Compound 12, 7-Hydroxy-4-methylbenzo[e][1,2]oxathiine 2,2-dioxide]: the melting point was in the range of 172 to 175 °C. For the same compound, in data set [1] (setting [5]), the Ki came to 55 nM. Also, in data set [2], the Ki came to 81.7 nM. Also, in data set [3], the inhibition constant Ki is 9960 nM. The Ki in data set [4] turned out to be 3860 nM.

On to `O=S1(=O)Oc2cc(OCc3cccc(F)c3)ccc2-c2ccccc21` [Compound 29, 3-((3-fluorobenzyl)oxy)dibenzo[c,e][1,2]oxathiine 6,6-dioxide], for which the melting point lay within 249 to 252 °C. Besides, in data set [1] (setting [5]), the Ki worked out at 566 nM. Also, the inhibitory constant (Ki) in data set [2] was 615 nM. For the same compound, the inhibitory constant (Ki) in data set [3] is > 100000 nM. Besides, the Ki in data set [4] was > 100000 nM.

Turning to `COc1ccc2c(c1)OS(=O)(=O)C(C(=O)O)=C2` [Compound 37, 7-methoxybenzo[e][1,2]oxathiine-3-carboxylic acid 2,2-dioxide], the melting point was in the range of 150 to 151 °C. The compound also displayed an inhibitory constant (Ki) in data set [1] of 408 nM. Further, the inhibitory constant (Ki) in data set [2] worked out at 854 nM. For the same compound, the Ki in data set [3] is 7140 nM. Besides, the Ki in data set [4] was found to be 728 nM.

Turning to `CC1=CS(=O)(=O)Oc2cc(OCc3cccc([N+](=O)[O-])c3)ccc21` [Compound 22, 7-((3-nitrobenzyl)oxy)-4-methylbenzo[e][1,2]oxathiine 2,2-dioxide], the melting point is 239 to 241 °C. In addition, the inhibitory constant (Ki) in data set [1] (setting [5]) was 136 nM. Further, the inhibitory constant (Ki) in data set [2] is 61.4 nM. Also, the Ki in data set [3] is > 100000 nM. Moreover, the inhibitory constant (Ki) in data set [4] was > 100000 nM.

`O=C(Nc1ccccc1)C1=Cc2ccccc2OS1(=O)=O` [Compound 38, N-phenylbenzo[e][1,2]oxathiine-3-carboxamide 2,2-dioxide] registered a melting point of 192 to 195 °C. The same compound showed a Ki in data set [1] of 2300 nM. Further, the Ki in data set [2] is 3290 nM. For the same compound, in data set [3], the Ki was > 100000 nM. In addition, the Ki in data set [4] was > 100000 nM.

`COc1ccc2c(c1)OS(=O)(=O)C(C(=O)Nc1cccc(Br)c1)=C2` [Compound 45, N-(3-bromophenyl)-7-methoxybenzo[e][1,2]oxathiine-3-carboxamide 2,2-dioxide] showed a melting point of 218 to 220 °C. In data set [1], affinity was put at a Ki of 76500 nM. In data set [2], the inhibition constant (Ki) is 64400 nM. The inhibition constant (Ki) in data set [3] was > 100000 nM. Besides, the Ki in data set [4] is > 100000 nM.

For `COc1ccc(NC(=O)C2=Cc3ccc(OC)cc3OS2(=O)=O)cc1` [Compound 46, N-(4-methoxyphenyl)-7-methoxybenzo[e][1,2]oxathiine-3-carboxamide 2,2-dioxide], the melting point lay within 238 to 240 °C. Moreover, the inhibitory constant (Ki) in data set [1] worked out at 6550 nM. For the same compound, in data set [2], the inhibitory constant (Ki) was found to be 4370 nM. For the same compound, the Ki in data set [3] was > 100000 nM. For the same compound, the Ki in data set [4] is > 100000 nM.

`O=S1(=O)C=Cc2ccc(OCc3ccc(F)cc3)cc2O1` [Compound 14, 7-((4-Fluorobenzyl)oxy)benzo[e][1,2]oxathiine 2,2-dioxide] gave a melting point of 197 to 199 °C. Further, the Ki in data set [1] (setting [5]) is 19.2 nM. In addition, in data set [2], the Ki amounted to 22.9 nM. The inhibition constant Ki in data set [3] was > 100000 nM. Moreover, in data set [4], the Ki is > 100000 nM.

`COc1ccc2c(c1)OS(=O)(=O)C(C(=O)Nc1ccccc1)=C2` [Compound 43, 7-methoxy-N-phenylbenzo[e][1,2]oxathiine-3-carboxamide 2,2-dioxide] yielded a melting point of 241 to 244 °C. In addition, the inhibitory constant (Ki) in data set [1] stood at 1590 nM. In addition, the inhibitory constant (Ki) in data set [2] is 2430 nM. For the same compound, the Ki in data set [3] was > 100000 nM. In addition, the Ki in data set [4] is > 100000 nM.

Regarding `O=[N+]([O-])c1cccc(COc2ccc3c(c2)OS(=O)(=O)C=C3)c1` [Compound 17, 7-((3-nitrobenzyl)oxy)benzo[e][1,2]oxathiine 2,2-dioxide], the melting point was in the range of 200 to 202 °C. The Ki in data set [1] (setting [5]) worked out at 77.5 nM. For the same compound, the Ki in data set [2] was determined as 40.2 nM. Moreover, in data set [3], the inhibition constant (Ki) was > 100000 nM. Also, the inhibition constant Ki in data set [4] is > 100000 nM.

Consider `O=[N+]([O-])c1ccc(COc2ccc3c(c2)OS(=O)(=O)C=C3)cc1` [Compound 16, 7-((4-Nitrobenzyl)oxy)benzo[e][1,2]oxathiine 2,2-dioxide], for which the melting point was 215 to 217 °C. Moreover, in data set [1] (setting [5]), the Ki is 94.7 nM. Moreover, the Ki in data set [2] is 68.9 nM and 69.8 nM. Moreover, the inhibition constant (Ki) in data set [3] was > 100000 nM. In data set [4], the Ki was > 100000 nM.

Compound `O=C(Nc1ccc(Br)cc1)C1=Cc2ccccc2OS1(=O)=O` [Compound 39, N-(4-bromophenyl)benzo[e][1,2]oxathiine-3-carboxamide 2,2-dioxide] came in with a melting point of 249 to 252 °C. Moreover, in data set [1], affinity was put at a Ki of 59000 nM. Further, in data set [2], the Ki worked out at 34300 nM. The Ki in data set [3] is > 100000 nM. In data set [4], the Ki is > 100000 nM.

`CCOC(=O)C1=Cc2ccccc2OS1(=O)=O` [Compound 34, ethyl benzo[e][1,2]oxathiine-3-carboxylate 2,2-dioxide] had a melting point of 111 to 113 °C. The Ki in data set [1] turned out to be 2590 nM. For the same compound, the inhibition constant Ki in data set [2] is 1630 nM. Also, the Ki in data set [3] was > 100000 nM. The Ki in data set [4] was > 100000 nM.

In turn, `CCOC(=O)C1=Cc2ccc(OC)cc2OS1(=O)=O` [Compound 35, ethyl 7-methoxybenzo[e][1,2]oxathiine-3-carboxylate 2,2-dioxide] yielded a melting point of 167 to 169 °C. The same compound gave a Ki in data set [1] of 1530 nM. In addition, the inhibition constant (Ki) in data set [2] came out at 1080 nM. Further, the inhibition constant (Ki) in data set [3] was > 100000 nM. Also, the Ki in data set [4] is > 100000 nM.

Consider `COc1ccc2c(c1)OS(=O)(=O)c1ccccc1-2` [Compound 25, 3-methoxydibenzo[c,e][1,2]oxathiine 6,6-dioxide], for which the melting point fell in the range of 180 to 183 °C. Also, the inhibition constant Ki in data set [1] (setting [5]) turned out to be 966 nM. In addition, the Ki in data set [2] came to 1290 nM. Moreover, in data set [3], the Ki is > 100000 nM. For the same compound, in data set [4], the Ki is > 100000 nM.

The compound `O=S1(=O)C=Cc2ccc(O)cc2O1` [Compound 11, 7-Hydroxybenzo[e][1,2]oxathiine 2,2-dioxide] showed a melting point of 157 to 159 °C. Moreover, the Ki in data set [1] (setting [5]) was 42.5 nM. Also, the Ki in data set [2] was found to be 55.8 nM. Also, the inhibitory constant (Ki) in data set [3] amounted to 16500 nM.

Turning to `COc1ccc2c(c1)OS(=O)(=O)C=C2` [Compound 9, 7-Methoxybenzo[e][1,2]oxathiine 2,2-dioxide], the melting point fell in the range of 111 to 112 °C. Besides, in data set [1] (setting [5]), the inhibition constant Ki is 61.4 nM. The inhibition constant (Ki) in data set [2] is 74.9 nM. The inhibition constant Ki in data set [3] was > 100000 nM.

For orientation: Ki means a measure of affinity in units of concentration, obtained from inhibition or displacement. As usually defined, the melting point is the temperature of the solid-liquid transition.
